Like-named read-outs stand apart in the source and are kept apart here.
System: postsynaptic QUIS-R of locust leg muscle
Assay: Antagonism of neurally-evoked twitch contraction of locust retractor unguis nerve-muscle preparation
Design: species or system Schistocerca gregaria
Settings: for IC50: read-out: IC50
Source text: Electrophysiological studies. The metathoracic retractor unguis nerve-muscle preparation of the locust Schistocerca gregaria was dissected and mounted in a small Perspex bath as described previously (21). The pharmacological activity on the locust nerve muscle preparation, using reduction in neurally evoked twitch amplitude as the measure of activity. Ten fractions were pharmacologically active. […] Further purification of this fraction by reverse-phase HPLC gave four peaks (FIG. 2B), the most pharmacologically was in the major peak (hatched FIG. 2B) . This fraction gave 1.1 mg of toxin as amorphous powder.
The retractor unguis muscle and its nerve were dissected from the metathoracic legs of adult, female locusts (Schistocerca gregaria) and mounted in a Perspex perfusion chamber as described by Usherwood and Machili (21) and Bateman, et al. (14). The muscle was stretched to maximal body length and attached at its tendon or apodeme to a Grass FT 10-strain gauge by a short length of nylon thread. The volume of the muscle bath was about 0.5 ml and its contents could be exchanged within 1 sec. The preparation was perfused continuously at the rate of 5-10 ml min^-1 (except during the application of toxin (see below)) with standard locust saline of the following composition (mM): NaCl, 180; KCl, 10; CaCl2, 2; Hepes, 10; buffered to pH 6.8. The retractor unguis muscle is innervated by two excitatory motoneurons (30) and an inhibitory motoneuron (19,32), but the influence of the latter on the responsiveness of the muscle is slight. Maximal stimulation of the retractor unguis nerve at 0.2 Hz produced a series of twitch contractions of constant amplitude, which were maintained for many hours in good preparations. The test compounds were kept at -20° C. They were dissolved in locust saline on the day of the assay and tested at room temperature. The compounds were applied by pipette to a nerve-muscle preparation such that the contents of the perfusion bath were completely replaced by the test solution. Exposure to the test compound lasted 20 min. Because of the limited availability of some of the compounds, the preparation was not perfused during this period. However, the amplitude of the retractor unguis muscle twitch rarely changed by more than 5-10% over a 20 minute period. During application of the test solutions the stimulation frequency was raised to 0.6 Hz for brief periods to test for stimulus frequency-dependent effects on twitch amplitude (31,37). Dose-inhibition data were obtained by testing the effects, on single retractor unguis muscle preparations, of a range of concentrations of the test compounds. Each concentration of the respective samples was tested at least thee times, and each compound was assayed usually over a 100-fold concentration range (a total of 7-10 concentrations). The standard deviations for twitch inhibition for any given concentration of a toxin rarely exceed 10%. Those compounds for which the deviation was greater than this are identified in Tables 1-7. There was some variation in the potency of PhTX-343 and the test compounds between nerve-muscle preparations. In order to compensate for this, the following procedure was adopted: PhTX-343 was assayed at a variety of concentrations on eight retractor unguis nerve-muscle preparations to give a cumulative dose-inhibition relationship for this toxin. The concentration of PhTX-343 which reduced the twitch contraction by 50% (IC50) was then determined by fitting a curve to the data using the following equation: [formula] where: [T]= toxin concentration, I= % inhibition, Imax =maximum inhibition= 100% and n' represents the Hill slope coefficient. […] The ratio of the actual reduction in twitch amplitude obtained with this single concentration of PhTX-343 and the 50% reduction that was anticipated from the cumulative dose-inhibition relationship for this toxin, was then used as a factor to normalize the data for the test compound. […]

[1] = Table 3, region C modifications
[2] = Table 3, relative to PhTX-343 = 1.0
[3] = Table 6, bis analogues of PhTX-343

SMILES	potency compared with PhTX-343 or other analogues (in words)	further results
NCCCNCCCCNCCCNC(=O)[C@H](Cc1ccc(O)cc1)NC(=O)CCCNc1ccc([N+](=O)[O-])cc1[N+](=O)[O-]		IC50 [1]: 53 µM; Relative Potency [2]: 0.4
NCCCNCCCCNCCCNC(=O)[C@H](Cc1ccc(O)cc1)NC(=O)CCCCCNC(=O)CCCCC1SCC2NC(=O)NC21 (some centres unmarked)		IC50 (M) [1]: insol.
CCCCCCC(=O)N[C@@H](Cc1ccc(O)cc1)C(=O)NCCCNCCCCNCCCNC(=O)[C@H](Cc1ccc(O)cc1)NC(=O)CCCCCC		IC50 (M) [3]: insol.
CCCCCCCCCC(=O)N[C@@H](Cc1ccc(O)cc1)C(=O)NCCCNCCCCNCCCNC(=O)[C@H](Cc1ccc(O)cc1)NC(=O)CCCCCCCCC		IC50 (M) [3]: insol.
O=C(N[C@@H](Cc1ccc(O)cc1)C(=O)NCCCNCCCCNCCCNC(=O)[C@H](Cc1ccc(O)cc1)NC(=O)c1ccccc1)c1ccccc1		IC50 [3]: 110 µM; Relative Potency (Table 6, relative to PhTX-343): 0.2
CCCC(=O)NCCCNCCCCNCCCN		IC50 (M) (Table 7, mono-acyl spermine analogues): agonist
CCCCCCC(=O)NCCCNCCCCNCCCNC(=O)CCCCCC		IC50 (M) (Table 7, bis-acyl spermine analogues): agonist
CCCC(=O)N[C@@H](Cc1ccc(O)cc1)C(=O)NCCCNCCCNCCCCN [Compound 3, PhTX-334]		potency compared with natural PhTX-433 (in words): higher potency than the natural PhTX-433 toxin; physiological activity relative to that of PhTX-433, by locust muscle twitch inhibition concentration (PhTX-433 = 100%): 125%; effect on the neurally-evoked twitch contraction (in words) (toxin 1-10 μM): influenced the twitch contraction in the same qualitative fashion as PhTX-433
CCCC(=O)N[C@@H](Cc1ccc(O)cc1)C(=O)NCCCCNCCCN [Compound 4, PhTX-43]	reduced potency	
CCCC(=O)N[C@@H](Cc1ccc(O)cc1)C(=O)NCCCCN [Compound 5, PhTX-4]	reduced potency	
CCCC(=O)N[C@@H](Cc1ccc(O)cc1)C(N)=O [Compound 6, PhTX-0]	slightly more active than PhTX-4	
CCCC(=O)N[C@@H](Cc1ccc(O)cc1)C(=O)NCCCCNCC(C)CNCCCN (some centres unmarked) [Compound 7]	did not greatly alter potency	
CCCCC(CNCCCN)CNCCCCNC(=O)[C@H](Cc1ccc(O)cc1)NC(=O)CCC (some centres unmarked) [Compound 8, PhTX-(butyl)433]	increased potency by almost six-fold	
CCCC(=O)N[C@@H](Cc1ccc(O)cc1)C(=O)NCCC[N+](C)(C)CCCC[N+](C)(C)CCC[N+](C)(C)C [Compound 9]	reduced potency compared with PhTX-343	
CCCC(=O)N[C@@H](Cc1ccccc1)C(=O)NCCCNCCCCNCCCN [Compound 10]	increased potency about three-fold	IC50 (Table 2, region B modifications, * SD < 20%): 6.7 µM; Relative Potency (Table 2, relative to PhTX-343 = 1.0): 3.4
CCCC(=O)N[C@@H](Cc1ccc(OC(C)=O)cc1)C(=O)NCCCNCCCCNCCCN [Compound 11]	unchanged potencies	
CCCC(=O)N[C@@H](Cc1ccc(OCc2ccccc2)cc1)C(=O)NCCCNCCCCNCCCN [Compound 12, N-butyryl-O-benzyl-L-tyrosine-spermineamide]	unchanged potencies	
CCCC(=O)N[C@@H](CC(C)C)C(=O)NCCCNCCCCNCCCN [Compound 14]	unchanged	
CCCC(=O)N[C@@H](C)C(=O)NCCCNCCCCNCCCN [Compound 15]	slightly reduced	
CCCC(=O)NCC(=O)NCCCNCCCCNCCCN [Compound 16, N-butyryl-L-glycine-spermine-amide]	greatly reduced activity	

SMILES	potency compared with PhTX-343 or other analogues (in words)	further results
CCCC(=O)N[C@@H](Cc1c[nH]c2ccccc12)C(=O)NCCCNCCCCNCCCN [Compound 17]		increase in potency compared with PhTX-343: 10 fold
CC(=O)N[C@@H](Cc1ccc(O)cc1)C(=O)NCCCNCCCCNCCCN [Compound 18]	slight but significant reduction in potency	
CCCCCCC(=O)N[C@@H](Cc1ccc(O)cc1)C(=O)NCCCNCCCCNCCCN [Compound 19]	successive increases in potency	
CCCCCCCCCC(=O)N[C@@H](Cc1ccc(O)cc1)C(=O)NCCCNCCCCNCCCN [Compound 20, C10-PhTX-343]	successive increases in potency	IC50 [1]: 1.4 µM; Relative Potency [2]: 16.0
C/C=C/C=C/C(=O)N[C@@H](Cc1ccc(O)cc1)C(=O)NCCCNCCCCNCCCN [Compound 21]	very potent	
NCCCNCCCCNCCCNC(=O)[C@H](Cc1ccc(O)cc1)NC(=O)C1CCCCC1 [Compound 22]	equal to that of compound 19	
NCCCNCCCCNCCCNC(=O)[C@H](Cc1ccc(O)cc1)NC(=O)c1ccccc1 [Compound 23]	equipotent with the C10 analogue 20	
NCCCNCCCCNCCCNC(=O)[C@H](Cc1ccc(O)cc1)NC(=O)Cc1ccccc1 [Compound 24]	less potent than PhTX-343	
NCCCNCCCCNCCCNC(=O)[C@H](Cc1ccc(O)cc1)NC(=O)/C=C/c1ccccc1 [Compound 25]	greatly increased potency	
[N-]=[N+]=Nc1ccc(C(=O)N[C@@H](Cc2ccc(O)cc2)C(=O)NCCCNCCCCNCCCN)cc1 [Compound 26]	reasonably active	
[N-]=[N+]=C(C(=O)NCCCC(=O)N[C@@H](Cc1ccc(O)cc1)C(=O)NCCCNCCCCNCCCN)C(F)(F)F [Compound 27]	only weakly active	
NCCCNCCCCNCCCNC(=O)[C@H](Cc1ccc(O)cc1)NC(=O)CCCCC1SCC2NC(=O)NC21 (some centres unmarked) [Compound 30]		IC50 (M) [1]: insol.
CCCC(=O)N[C@@H](Cc1ccc(O)cc1)C(=O)NCCCNCCCCNCCCNC(C)=O [Compound 32]	low potency	
CCCC(=O)N[C@@H](Cc1ccc(O)cc1)C(=O)NCCCNCCCCNCCCNC(=O)CN [Compound 33]	potency was reduced	
CCCC(=O)N[C@@H](Cc1ccc(O)cc1)C(=O)NCCCNCCCCNCCCNC(=O)CCCN [Compound 34]	potency was reduced	
CCCC(=O)N[C@@H](Cc1ccc(O)cc1)C(=O)NCCCNCCCCNCCCNC(=O)C(N)CCCCN (some centres unmarked) [Compound 35]	increased potency	
CCCC(=O)N[C@@H](Cc1ccc(O)cc1)C(=O)NCCCNCCCCNCCCNC(=O)[C@@H](N)CCCNC(=N)N [Compound 36, PhTX-343-L-arginine-amide]	increased potency	
CCCC(=O)N[C@@H](Cc1ccc(O)cc1)C(=O)NCCCNCCCCNCCCNC(=O)C(N)CCCCNC(=O)C(N)CCCCN (some centres unmarked) [Compound 37]	more active than compound 35	
CCCC(=O)N[C@@H](Cc1cc(I)c(O)c(I)c1)C(=O)NCCCNCCCCNCCCNC(=O)[C@@H](N)CCCCN [Compound 38, diiodo-PhTX-lysine]	more potent than PhTX-343	
